Tests used:
[1] = Association between model-derived AUC and pharmacodynamic biomarkers; type: in vivo, human
[2] = Population pharmacokinetic model
[3] = final population PK model, combined dataset

## CC(C)CN(C[C@@H](O)[C@H](Cc1ccccc1)NC(=O)O[C@H]1CO[C@H]2OCC[C@H]21)S(=O)(=O)c1ccc(N)cc1 [Darunavir]
[1]; Spearman, p = 0.3
  correlation between AUC and CD4 lymphocyte count: no apparent correlation
[1]; any point during follow-up, W = 1613.5, p = 0.42
  correlation between AUC and occurrence of CNS adverse events: no apparent correlation
[1]; any point during follow-up, W = 1687, p = 0.97
  correlation between AUC and occurrence of lipodystrophy: no apparent correlation
[1]; viral load > 40 or < 40 copies/mL, Wilcoxon W = 582, p = 0.45
  correlation between AUC and viral load: no apparent correlation
[2]; combined dataset
  CL higher in CYP3A5 expressors compared with non-expressors: 19%
  CL lower in female compared with male individuals: 21%
[2]; final model
  σadditive (SD), residual variability: 0.641
  σexponential (SD), residual variability: 0.281
[2]; final model, rs8027174
  SLCO3A1 G > T on V (covariate scale factor): 0.81
[2]; [3]
  ωCL (SD), inter-individual variability of CL: 0.22
  ωV (SD), inter-individual variability of V: 0.33
  ωka (SD), inter-individual variability of ka: 0.60
[2]; final population PK model, combined dataset, typical value
  ka (absorption rate constant), estimate: 0.68 h⁻¹

Source: paper PMC7862523 (Clinical Pharmacokinetics, 2020)
